Assay results as given in PubChem BioAssay (NCI).
Where “and” joins values, the source holds several entries; their conditions need not be identical. Equal entries are not always repeated.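 Protocol summary: plate cells (96-well), add compound at 5 concentrations, incubate 48 h, interpolate endpoints linearly. GI50 marks 50% less growth. At the TGI there is no net growth.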 Calls of active or inactive are those of the source. Rule as the data show it: active = GI50 below about 0.43 µM; inactive = the rest.

Legend:
Experiment in all cases: growth of human tumour cells (NCI), 48 h
[1] = system: COLO 205 colon
[2] = system: SK-MEL-2 melanoma
[3] = system: OVCAR-4 ovarian
[4] = system: HOP-92 NSCLC
[5] = system: SNB-78 CNS
[6] = system: HCC-2998 colon
[7] = system: SF-268 CNS
[8] = system: LXFL 529 NSCLC
[9] = system: RXF 393 renal
[10] = system: MOLT-4 leukemia
[11] = system: TK-10 renal
[12] = system: SN12C renal
[13] = system: CCRF-CEM leukemia
[14] = system: KM12 colon
[15] = system: ACHN renal
[16] = system: SK-MEL-5 melanoma
[17] = system: HL-60(TB) leukemia
[18] = system: M14 melanoma
[19] = system: NCI-H23 lung
[20] = system: LOX IMVI melanoma
[21] = system: OVCAR-5 ovarian
[22] = system: OVCAR-8 ovarian
[23] = system: SF-539 CNS
[24] = system: NCI-H460 lung
[25] = system: DMS 273 small cell lung
[26] = system: A549 NSCLC
[27] = system: MALME-3M melanoma
[28] = system: SW-620 colon
[29] = system: SK-MEL-28 melanoma
[30] = system: IGROV1 ovarian
[31] = system: OVCAR-3 ovarian
[32] = system: SNB-19 CNS
[33] = system: M19-MEL melanoma
[34] = system: SF-295 CNS
[35] = system: DMS 114 small cell lung
[36] = system: UACC-62 melanoma
[37] = system: SK-OV-3 ovarian
[38] = system: UACC-257 melanoma
[39] = system: 786-0 renal
[40] = system: KM20L2 colon
[41] = system: RPMI-8226 leukemia
[42] = system: RXF-631 renal
[43] = system: K-562 leukemia
[44] = system: SNB-75 CNS
[45] = system: HOP-62 NSCLC
[46] = system: XF 498 CNS
[47] = system: U251 CNS
[48] = system: NCI-H226 lung
[49] = system: DLD-1 colon
[50] = system: NCI-H522 lung
[51] = system: UO-31 renal
[52] = system: HCT-116 colon
[53] = system: EKVX NSCLC
[54] = system: MCF7 breast
[55] = system: T-47D breast
[56] = system: MDA-N
[57] = system: MDA-MB-231 breast
[58] = system: BT-549 breast
[59] = system: CAKI-1 renal
[60] = system: MDA-MB-435
[61] = system: HT29 colon
[62] = system: SR leukemia
[63] = system: HS 578T breast
[64] = system: HCT-15 colon
[65] = system: PC-3 prostate
[66] = system: A498 renal
[67] = system: DU-145 prostate

C=CCCCCC1CCC2CCC(CCCC)N12 (centres undefined)
outcome [1]: inactive
outcome [2]: inactive
outcome [3]: inactive
outcome [4]: inactive
outcome [5]: inactive
outcome [6]: inactive
outcome [7]: inactive
outcome [8]: inactive
outcome [9]: inactive
outcome [10]: inactive
outcome [11]: inactive
outcome [12]: inactive
outcome [13]: inactive
outcome [14]: inactive
outcome [15]: inactive
outcome [16]: inactive
outcome [17]: inactive
outcome [18]: inactive
outcome [19]: inactive
outcome [20]: inactive
outcome [21]: inactive
outcome [22]: inactive
outcome [23]: inactive
outcome [24]: inactive
outcome [25]: inactive
outcome [26]: inactive
outcome [27]: inactive
outcome [28]: inactive
outcome [29]: inactive
outcome [30]: inactive
outcome [31]: inactive
outcome [32]: inactive
outcome [33]: inactive
outcome [34]: inactive
outcome [35]: inactive
outcome [36]: inactive
outcome [37]: inactive
outcome [38]: inactive
outcome [39]: inactive
outcome [40]: inactive
outcome [41]: inactive
outcome [42]: inactive
outcome [43]: inactive
outcome [44]: inactive
outcome [45]: inactive
outcome [46]: inactive
outcome [47]: inactive
outcome [48]: inactive
outcome [49]: inactive
outcome [50]: inactive
outcome [51]: inactive
outcome [52]: inactive

O=[N+]([O-])c1cccc2nc3ccccc3c(NCCN(CCO)CCO)c12
TGI [1]: 14.6 nM
TGI [2]: 10.2 nM
TGI [3]: 14.7 nM and 81.2 nM
TGI [4]: 17.1 nM
TGI [5]: 194 nM and 52.3 nM
GI50 [53]: 12.8 nM
TGI [53]: 41.1 nM and 52.4 nM
TGI [6]: 6.74 nM
TGI [7]: 29.6 nM and 113 nM
TGI [8]: 108 nM and 24.3 nM
TGI [9]: 4.47 nM
TGI [54]: 32.2 nM
GI50 [10]: 4.13 nM
TGI [10]: 90.3 nM
TGI [55]: 114 nM
TGI [11]: 138 nM
TGI [12]: 28.7 nM and 85.9 nM
GI50 [13]: 15.6 nM
TGI [13]: 109 nM
TGI [14]: 20.6 nM
TGI [15]: 20.5 nM and 34.5 nM
TGI [16]: 5.74 nM and 13 nM
TGI [18]: 8.21 nM
TGI [19]: 5.83 nM
GI50 [20]: 11.8 nM
TGI [20]: 31.9 nM and 33.1 nM
TGI [21]: 23.4 nM
TGI [56]: 2.9 nM
TGI [57]: 9.7 nM
TGI [58]: 8.75 nM
TGI [22]: 23.1 nM and 16.6 nM
TGI [59]: 23.2 nM and 62.2 nM
GI50 [23]: 13.7 nM
TGI [23]: 26.6 nM and 59.4 nM
TGI [24]: 8.91 nM
TGI [25]: 42.2 nM and 24.6 nM
TGI [60]: 2.83 nM
TGI [26]: 33.4 nM
TGI [27]: 6.49 nM
TGI [28]: 23.5 nM and 111 nM
GI50 [29]: 10.3 nM
TGI [29]: 27 nM and 23 nM
TGI [61]: 20.2 nM
TGI [30]: 26.5 nM
TGI [62]: 110 nM
TGI [31]: 14.4 nM
TGI [32]: 108 nM and 346 nM
TGI [34]: 54.9 nM and 17 nM
TGI [36]: 11.4 nM
TGI [37]: 177 nM
GI50 [38]: 49.8 nM
TGI [38]: 224 nM and 23.8 nM
TGI [39]: 29.6 nM
TGI [63]: 30.8 nM
TGI [40]: 69 nM and 29 nM
TGI [41]: 97.1 nM
TGI [42]: 108 nM and 40.5 nM
GI50 [43]: 4.76 nM
TGI [43]: 28.3 nM
TGI [44]: 28.6 nM
TGI [45]: 9.91 nM
TGI [46]: 24 nM
TGI [47]: 26.1 nM
TGI [48]: 4.1 nM and 19.3 nM
TGI [64]: 66.8 nM and 169 nM
TGI [49]: 65.8 nM and 580 nM
TGI [65]: 10.9 nM
TGI [66]: 11.6 nM
TGI [50]: 3.89 nM
TGI [67]: 10.8 nM
GI50 [51]: 257 nM
TGI [52]: 31.1 nM
